Data from US8936939B2, “Hormone responsive tissue culture system and uses thereof” (Whitehead Institute for Biomedical Research, priority 2004, dated 2015).

How the values were obtained:
BPE cells = assay: In vitro growth inhibition of BPE cells by estrogen antagonist; assay type: cell-based, human; conditions: data not shown
Source text: (§1) Expression of CK18 and BER-Ep4 both confirm the adenocarcinoma features and exclude a squamous tumor. E-cadherin excludes a mesenchymal tumor. BPLER xenografts express progesterone receptor, which is consistent with the notion that BPLER xenografts are hormone-responsive. This was confirmed by experiments in which estrogen-progesterone treatment of mice increased subject tumor size approximately two-fold compared to untreated mice. […] Similar tumor xenografts from cells cultured in the MEGM media was negative for progesterone receptor expression and the in vitro growth inhibition of the cells with ICI 182,780 was less than 20% (data not shown).

BPLE cells = assay: In vitro growth inhibition of BPLE cells by estrogen antagonist; assay type: cell-based, human; conditions: data not shown
Source text: as §1

BPEC cells = assay: In vitro growth inhibition of BPEC cells by estrogen antagonist; assay type: cell-based, human; conditions: data not shown
Source text: as §1

[1] = test system: cells cultured in the MEGM media; assay: In vitro growth inhibition of cells cultured in the MEGM media by estrogen antagonist; assay type: cell-based, human; conditions: data not shown
Source text: as §1

BPLER xenografts = assay: Hormone response of BPLER xenograft tumors in mice; assay type: in vivo; conditions: estrogen treated animals vs control animals
Source text: In one respect, the histology of tumors arising from BPLER is very similar, if not identical to human ductal breast carcinoma. There is prominent luminal marker CK18 expression in BPLER cells and tumors. There is also prominent expression of E-cadherin, a marker indicating polarization of cells. Morphology wise, BPLER xenografts form glandular structures similar to those seen in human tumors. BPLER xenografts into mammary fat pads are invasive into adjacent skeletal muscle, and cause a desmoplastic reaction. BPLER xenografts also express progesterone receptors based on immunohistological staining of xenograft tumor samples. In addition, BPLER tumor sizes respond to estrogen treatment, in that xenograft tumors weighed about 70-100% more in estrogen treated animals than in control animals. BPLER tumors spread within the breast tissue of mice, and the multifocal growth is consistent with lymphovascular invasion and spread of tumors.
Subcutaneous tumorigenicity was tested in 6-8 week old immunocompromised athymic nude mice by injecting about 1×10^6 cells resuspended in 100 μl of 50% matrigel (EHSS). Nude mice were irradiated with 400 rad 12 hr prior to injections. Orthotopic tumorigenicity was tested by injecting about 1×10^6 cells into the mammary fat pad of Nod/Skid mice. All mice were sacrificed on day 70. […]

Row | Molecule | growth inhibition (BPE cells) | growth inhibition (BPLE cells) | growth inhibition (BPEC cells) | in vitro growth inhibition [1] | xenograft tumor weight increase in treated versus control animals (BPLER xenografts)
1 | C[C@]12CC[C@@H]3c4ccc(O)cc4C[C@@H](CCCCCCCCC[S+]([O-])CCCC(F)(F)C(F)(F)F)[C@H]3[C@@H]1CC[C@@H]2O (some centres unmarked) [ICI 182,780] | > 80% | > 80% | > 80% | less than 20% | 
2 | estrogen |  |  |  |  | 70-100%
